From publication PMC6325200, “Effects of Microplate Type and Broth Additives on Microdilution MIC Susceptibility Assays” (Antimicrobial Agents and Chemotherapy, 2018)
Converted amounts (≈) assume the structure as drawn.

Tests used:
MRSA = conditions: literature value; cited from earlier work
Description: TABLE 1 Literature MIC values for tested antibiotics | column: MIC (µg/ml) (reference[s]) / MRSA

P. aeruginosa ATCC 10145 = assay: microbe, parasite or virus in culture; conditions: Pseudomonas aeruginosa, n = 2
In short: (§1)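 Compounds and standard antibiotics were serially diluted 2-fold across 96-well plates. Cultures were diluted 40-fold in fresh MH broth, with and without Tween, and incubated at 37°C for 2 to 3 h. Each plate carried a bacteria-only row and a medium-only control.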

E. faecalis ATCC 29212 = assay: microbe, parasite or virus in culture; conditions: Enterococcus faecalis, n = 2
In short: as §1

S. pneumoniae ATCC 33440 = assay: microbe, parasite or virus in culture; conditions: Streptococcus pneumoniae, n = 2
In short: as §1

[1] = test system: MSSA S. aureus ATCC 25923; assay: microbe, parasite or virus in culture; conditions: Staphylococcus aureus, n = 2
In short: as §1

[2] = test system: S. aureus GISA NRS 2; ATCC 700698; assay: microbe, parasite or virus in culture; conditions: Staphylococcus aureus, n = 2
In short: as §1

[3] = test system: S. pneumoniae ATCC 700677 (MDR); assay: microbe, parasite or virus in culture; conditions: Streptococcus pneumoniae, ATCC700677
In short: as §1

E. coli ATCC 25922 = assay: microbe, parasite or virus in culture; conditions: Escherichia coli, n = 2
In short: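 Broth microdilution with 2-fold serial compound dilutions in MH broth, using cultures diluted 40-fold and grown at 37°C for 2 to 3 h, with or without Tween. Variants included 2% beractant added to mid-log cultures, or 50% human serum in MHB.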

E. coli = conditions: literature value; cited from earlier work

SMILES: O=C(O)c1cn(C2CC2)c2cc(N3CCNCC3)c(F)cc2c1=O [Ciprofloxacin, ciprofloxacin]
- MIC (literature) (MRSA): 0.5 ([63]) µg/ml
- MIC (P. aeruginosa ATCC 10145; ATCC10145, Corning PS, MHB +T80): 0.25 to 0.5 µg/mL (≈ 0.754 to 1.51 µM)
- MIC (P. aeruginosa ATCC 10145; ATCC10145, Corning TC, MHB +T80): 0.25 to 0.5 µg/mL (≈ 0.754 to 1.51 µM)
- MIC (P. aeruginosa ATCC 10145; ATCC10145, Corning TC, MHB -T80): ≤ 0.03 µg/mL
- MIC (E. faecalis ATCC 29212; ATCC29212, Corning NBS, MHB +T80): 2 µg/mL (≈ 6.04 µM)
- MIC (E. faecalis ATCC 29212; ATCC29212, Corning NBS, MHB -T80): 2 µg/mL (≈ 6.04 µM)
- MIC (E. faecalis ATCC 29212; ATCC29212, Corning TC, MHB +T80): 0.5 to 1 µg/mL (≈ 1.51 to 3.02 µM)
- MIC (E. faecalis ATCC 29212; ATCC29212, Corning TC, MHB -T80): 0.25 µg/mL (≈ 0.754 µM)
- MIC (S. pneumoniae ATCC 33440; ATCC33440, Corning NBS, MHB +T80): 0.25 to 1 µg/mL (≈ 0.754 to 3.02 µM)
- MIC (S. pneumoniae ATCC 33440; ATCC33440, Corning PS, MHB -T80): 0.25 to 0.5 µg/mL (≈ 0.754 to 1.51 µM)
- MIC (S. pneumoniae ATCC 33440; ATCC33440, Corning TC, MHB +T80): 0.25 to 0.5 µg/mL (≈ 0.754 to 1.51 µM)
- MIC (S. pneumoniae ATCC 33440; ATCC33440, Corning TC, MHB -T80): 0.25 to 0.5 µg/mL (≈ 0.754 to 1.51 µM)
- MIC ([1]; Corning NBS, MHB +T80): 0.5 to 1 µg/mL (≈ 1.51 to 3.02 µM)
- MIC ([1]; Corning PS, MHB +T80): 0.5 µg/mL (≈ 1.51 µM)
- MIC ([1]; Corning PS, MHB -T80): 0.25 to 0.5 µg/mL (≈ 0.754 to 1.51 µM)
- MIC ([1]; Corning TC, MHB +T80): 0.5 to 1 µg/mL (≈ 1.51 to 3.02 µM)
- MIC ([2]; Corning NBS, MHB +T80): 64 µg/mL (≈ 193 µM)
- MIC ([2]; Corning NBS, MHB -T80): 64 µg/mL (≈ 193 µM)
- MIC ([2]; Corning PS, MHB +T80): 64 µg/mL (≈ 193 µM)
- MIC ([2]; Corning TC, MHB +T80): 64 µg/mL (≈ 193 µM)
- MIC ([2]; Corning TC, MHB -T80): 32 to 64 µg/mL (≈ 96.6 to 193 µM)
- MIC [3]: 0.5 to 1 µg/mL (≈ 1.51 to 3.02 µM)
- MIC (E. coli ATCC 25922; ATCC25922, 24 h, Corning NBS, MH + 2% LHB, 2% LS): 0.03 to 0.06 µg/mL
- MIC (E. coli ATCC 25922; ATCC25922, 24 h, Corning NBS, MH + 2% LHB, 50% HS): ≤ 0.03 µg/mL
- MIC (E. coli ATCC 25922; ATCC25922, 24 h, Corning NBS, MH + 2% LHB, no additive): ≤ 0.03 µg/mL
- MIC (E. coli ATCC 25922; ATCC25922, 24 h, Corning NBS, MH + T80, 2% LS): ≤ 0.03 µg/mL
- MIC (E. coli ATCC 25922; ATCC25922, 24 h, Corning NBS, MH + T80, 50% HS): ≤ 0.03 µg/mL
- MIC (E. coli ATCC 25922; ATCC25922, 24 h, Corning PS, MH + 2% LHB, 2% LS): ≤ 0.03 µg/mL
- MIC (E. coli ATCC 25922; ATCC25922, 24 h, Corning PS, MH + 2% LHB, 50% HS): ≤ 0.03 µg/mL
- MIC (E. coli ATCC 25922; ATCC25922, 24 h, Corning PS, MH + 2% LHB, no additive): ≤ 0.03 µg/mL
- MIC (E. coli ATCC 25922; ATCC25922, 24 h, Corning PS, MH + T80, 2% LS): ≤ 0.03 µg/mL
- MIC (E. coli ATCC 25922; ATCC25922, 24 h, Corning PS, MH + T80, 50% HS): ≤ 0.03 µg/mL
- MIC (E. coli ATCC 25922; ATCC25922, 24 h, Corning TC, MH + 2% LHB, 2% LS): ≤ 0.03 µg/mL
- MIC (E. coli ATCC 25922; ATCC25922, 24 h, Corning TC, MH + 2% LHB, 50% HS): ≤ 0.03 µg/mL
- MIC (E. coli ATCC 25922; ATCC25922, 24 h, Corning TC, MH + 2% LHB, no additive): ≤ 0.03 µg/mL
- MIC (E. coli ATCC 25922; ATCC25922, 24 h, Corning TC, MH + T80, 2% LS): ≤ 0.03 µg/mL
- MIC (E. coli ATCC 25922; ATCC25922, 24 h, Corning TC, MH + T80, 50% HS): ≤ 0.03 µg/mL
- MIC (E. coli ATCC 25922; ATCC25922, 24 h, Trek PS, MH + 2% LHB, 2% LS): ≤ 0.03 µg/mL
- MIC (E. coli ATCC 25922; ATCC25922, 24 h, Trek PS, MH + 2% LHB, 50% HS): ≤ 0.03 µg/mL
- MIC (E. coli ATCC 25922; ATCC25922, 24 h, Trek PS, MH + 2% LHB, no additive): 0.03 to 0.06 µg/mL
- MIC (E. coli ATCC 25922; ATCC25922, 24 h, Trek PS, MH + T80, 2% LS): ≤ 0.03 µg/mL
- MIC (E. coli ATCC 25922; ATCC25922, 24 h, Trek PS, MH + T80, 50% HS): ≤ 0.03 µg/mL
- MIC (E. coli ATCC 25922; ATCC25922, Corning NBS plate, MHB +0.002% T80, no further additive): ≤ 0.03 µg/mL
- MIC (E. coli ATCC 25922; ATCC25922, Corning NBS plate, MHB −T80, no additive): ≤ 0.03 µg/mL
- MIC (E. coli ATCC 25922; ATCC25922, Corning NBS, MH, 2% LS): ≤ 0.03 µg/mL
- MIC (E. coli ATCC 25922; ATCC25922, Corning NBS, MH, 50% HS): ≤ 0.03 µg/mL
- MIC (E. coli ATCC 25922; ATCC25922, Corning PS plate, MHB +0.002% T80, no further additive): ≤ 0.03 µg/mL
- MIC (E. coli ATCC 25922; ATCC25922, Corning PS plate, MHB −T80, no additive): ≤ 0.03 µg/mL
- MIC (E. coli ATCC 25922; ATCC25922, Corning PS, MH, 2% LS): ≤ 0.03 µg/mL
- MIC (E. coli ATCC 25922; ATCC25922, Corning PS, MH, 50% HS): ≤ 0.03 µg/mL
- MIC (E. coli ATCC 25922; ATCC25922, Corning TC plate, MHB +0.002% T80, no further additive): ≤ 0.03 µg/mL
- MIC (E. coli ATCC 25922; ATCC25922, Corning TC plate, MHB −T80, no additive): ≤ 0.03 µg/mL
- MIC (E. coli ATCC 25922; ATCC25922, Corning TC, MH, 2% LS): ≤ 0.03 µg/mL
- MIC (E. coli ATCC 25922; ATCC25922, Corning TC, MH, 50% HS): ≤ 0.03 µg/mL
- MIC (E. coli ATCC 25922; ATCC25922, Nunc PS plate, MHB −T80): ≤ 0.03 µg/mL
- MIC (E. coli ATCC 25922; ATCC25922, Nunc U TC plate, MHB +0.002% T80): ≤ 0.03 µg/mL
- MIC (E. coli ATCC 25922; ATCC25922, Nunc U TC plate, MHB −T80): ≤ 0.03 µg/mL
- MIC (E. coli ATCC 25922; ATCC25922, Nunc flat TC plate, MHB +0.002% T80): ≤ 0.03 µg/mL
- MIC (E. coli ATCC 25922; ATCC25922, Nunc flat TC plate, MHB −T80): ≤ 0.03 µg/mL
- MIC (E. coli ATCC 25922; ATCC25922, Trek PS plate, MHB +0.002% T80, no further additive): ≤ 0.03 µg/mL
- MIC (E. coli ATCC 25922; ATCC25922, Trek PS plate, MHB −T80, no additive): ≤ 0.03 µg/mL
- MIC (E. coli ATCC 25922; ATCC25922, Trek PS, MH, 2% LS): ≤ 0.03 µg/mL
- MIC (E. coli ATCC 25922; ATCC25922, Trek PS, MH, 50% HS): ≤ 0.03 µg/mL
- MIC (literature) (E. coli): 0.03–0.06 ([64], [65]) µg/ml
